Structures can show the parent of a compound that is named as a salt. Where two headings read alike, the source gives them in different places.
What was measured:
[1] = tested on: Phospho-ERK levels in KYSE-520 cells; test: pERK AlphaScreen Protocol; assay type: cell-based; details: Homo sapiens, KYSE-520, 2 h, read-out: PERK Avg IC50
Experimental: KYSE-520 cells (10 k cells/well) were grown in 384-well plate in 20 uL of medium (RPMI-1640, without phenol red, containing 10% FBS) at 37° C. with 5% CO2 overnight. DMSO (control) or increasing concentrations of compounds were diluted in medium, added to the 384-well plate (5 uL/well, final DMSO concentration of 1%), and cells were then incubated with compounds for 2 hr. Phospho-ERK levels were measured using phospho-ERK1/2 AlphaScreen SureFire (PerkinElmer, TGRESB10K) following manufacturer's recommendations. Dose-response curves were analyzed using IC50 regression curve fitting (GeneData Screener). Curves were normalized to a high control without inhibitor (DMSO only), and low control (1 μM selumetinib).

[2] = biological target: PTPN11-E76K mutant enzyme (Homo sapiens (Human), UniProt Q06124, E76K); test: PTPN11 Enzymatic Assay (DiFMUP phosphatase activity); assay type: biochemical; details: full length PTPN11-E76K mutant enzyme 250 pM, DiFMUP 50 μM, 30 min preincubation; read-out: PTPN11-E76K Avg IC50
Experimental: Reaction was initiated by addition of DiFMUP (50 μM) at room temperature in 384-well black plate with a final reaction volume of 20 uL in assay buffer. […] Dose-response curves were analyzed using IC50 regression curve fitting (GeneData Screener). Curves were normalized to a high controls without inhibitor, and low controls without enzyme.

[3] = KYSE-520 cells, 2 hr compound incubation, phospho-ERK1/2 AlphaScreen SureFire

PTPN11-E76K mutant enzyme, sequence (Q06124 whole entry E76K): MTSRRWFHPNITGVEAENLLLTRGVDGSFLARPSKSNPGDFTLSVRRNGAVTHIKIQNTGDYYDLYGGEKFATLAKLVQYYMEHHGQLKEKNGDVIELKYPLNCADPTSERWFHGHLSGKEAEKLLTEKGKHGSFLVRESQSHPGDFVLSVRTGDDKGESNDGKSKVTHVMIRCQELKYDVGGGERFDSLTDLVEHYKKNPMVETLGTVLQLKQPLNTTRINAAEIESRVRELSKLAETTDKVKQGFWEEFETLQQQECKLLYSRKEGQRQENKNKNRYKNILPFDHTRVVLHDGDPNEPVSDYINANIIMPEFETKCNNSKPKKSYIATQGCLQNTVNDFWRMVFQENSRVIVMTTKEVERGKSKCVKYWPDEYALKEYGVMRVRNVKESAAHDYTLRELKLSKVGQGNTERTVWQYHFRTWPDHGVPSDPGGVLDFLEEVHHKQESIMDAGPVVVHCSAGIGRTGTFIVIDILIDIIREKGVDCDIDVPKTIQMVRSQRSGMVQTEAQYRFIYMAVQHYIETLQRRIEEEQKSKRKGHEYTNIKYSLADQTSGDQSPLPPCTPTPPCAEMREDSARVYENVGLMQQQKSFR

| Compound | IC50 [1, 3] [nM] | IC50 [2] [nM] | IC50 [1] [nM] |
| --- | --- | --- | --- |
| Clc1cccc(-c2n[nH]c3nc(N4CCC5(CCN5)CC4)cnc23)c1Cl [Example 7, 3-(2,3-dichloro-phenyl)-6-(1,7-diaza-spiro[3.5]nonan-7-yl)-1H-pyrazolo[3,4-b]pyrazine] | 79 | 196 | – |
| CC1(CN)CCN(c2cnc3c(-c4ccccc4Cl)n[nH]c3n2)CC1 [Example 29] | 87 | 178 | – |
| CCC1(N)CCN(c2cnc3c(-c4ccnc(N)c4Cl)n[nH]c3n2)CC1 [Example 135, 4-[6-(4-amino-4-ethylpiperidin-1-yl)-1H-pyrazolo[3,4-b]-pyrazin-3-yl]-3-chloropyridin-2-amine] | 122 | 529 | – |
| NCC1(O)CCN(c2cnc3c(-c4cccc(Cl)c4Cl)n[nH]c3n2)CC1 [Example 8, 4-(aminomethyl)-1-(3-(2,3-dichloro-phenyl)-1H-pyrazolo[3,4-b]-pyrazin-6-yl)-piperidin-4-ol] | 86 | 204 | – |
| NC1(CO)CCN(c2cnc3c(-c4cccc(Cl)c4Cl)n[nH]c3n2)CC1 [Example 57, (4-Amino-1-(3-(2,3-dichlorophenyl)-1H-pyrazolo[3,4-b]pyrazin-6-yl)piperidin-4-yl)-methanol] | 53 | 104 | – |
| N[C@@H]1COCC12CCN(c1cnc3c(-c4ccnc(O)c4Cl)n[nH]c3n1)CC2 [Example 109, (S)-4-(6-(4-Amino-2-oxa-8-azaspiro[4.5]decan-8-yl)-1H-pyrazolo[3,4-b]pyrazin-3-yl)-3-chloropyridin-2-ol] | 10000 | 1100 | – |
| Nc1cc(-c2n[nH]c3nc(N4CCC5(CCC[C@H]5N)CC4)cnc23)c(Cl)cn1 [Example 125, (R)-8-(3-(2-amino-5-chloropyridin-4-yl)-1H-pyrazolo[3,4-b]pyrazin-6-yl)-8-azaspiro[4.5]decan-1-amine] | 429 | 509 | – |
| CC1(CN)CCN(c2cnc3c(-c4cccc(C(F)(F)F)c4)n[nH]c3n2)CC1 [Example 22, (4-methyl-1-(3-(3-(trifluoromethyl)-phenyl)-1H-pyrazolo[3,4-b]pyrazin-6-yl)-piperidin-4-yl)-methanamine] | 976 | 1750 | – |
| N[C@@H]1COCC12CCN(c1cnc3c(-c4cccnc4Cl)n[nH]c3n1)CC2 [Example 41, (S)-8-(3-(2-chloro-pyridin-3-yl)-1H-pyrazolo[3,4-b]-pyrazin-6-yl)-2-oxa-8-azaspiro[4.5]-decan-4-amine trifluoroacetate] | – | 966 | 394 |
| CC1(CN)CCN(c2cnc3c(-c4cccnc4Cl)n[nH]c3n2)CC1 [Example 36, (1-(3-(2-chloro-pyridin-3-yl)-1H-pyrazolo[3,4-b]-pyrazin-6-yl)-4-methylpiperidin-4-yl) methanamine] | 320 | 967 | – |
| NC1(CF)CCN(c2cnc3c(-c4cccc(Cl)c4Cl)n[nH]c3n2)CC1 [Example 58, 1-(3-(2,3-dichlo-rophenyl)-1H-pyrazolo[3,4-b]-pyrazin-6-yl)-4-(fluoromethyl)-piperidin-4-amine] | 109 | 338 | – |
| CC1(CN)CCN(c2cnc3c(-c4ccc(Cl)cc4)n[nH]c3n2)CC1 [Example 16] | 309 | 169 | – |
| CC1(N)CCN(c2cnc3c(-c4ccc(Cl)c(Cl)c4)n[nH]c3n2)CC1 [Example 18, 1-(3-(3,4-dichloro-phenyl)-1H-pyrazolo[3,4-b]-pyrazin-6-yl)-4-methylpiperidin-4-amine] | 667 | 141 | – |
| Nc1nccc(-c2n[nH]c3nc(N4CCC5(CCC[C@H]5N)CC4)cnc23)c1Cl [Example 130, (1R)-8-[3-(2-amino-3-chloropyridin-4-yl)-1H-pyrazolo[3,4-b]pyrazin-6-yl]-8-azaspiro[4.5]decan-1-amine] | 65 | 83 | – |
| N[C@@H]1COCC12CCN(c1cnc3c(-c4c(F)cccc4Cl)n[nH]c3n1)CC2 [Example 40, (4S)-8-(3-(2-Chloro-6-fluorophenyl)-1H-pyrazolo[3,4-b]-pyrazin-6-yl)-2-oxa-8-azaspiro[4.5]-decan-4-amine] | 186 | 203 | – |
| N[C@@H]1CCCC12CCN(c1cnc3c(-c4ccc(Cl)cc4)n[nH]c3n1)CC2 [Example 17, (R)-8-(3-(4-chloro-phenyl)-1H-pyrazolo[3,4-b]-pyrazin-6-yl)-8-aza-spiro[4.5]decan-1-amine] | 82 | 118 | – |

| Compound | IC50 [1, 3] [nM] | IC50 [2] [nM] | IC50 [1] [nM] |
| --- | --- | --- | --- |
| COc1cc(-c2n[nH]c3nc(N4CCC(C)(CN)CC4)cnc23)ccc1Cl [Example 33, (1-(3-(4-Chloro-3-methoxyphenyl)-1H-pyrazolo[3,4-b]pyrazin-6-yl)-4-methylpiperidin-4-yl)methanamine] | 96 | 72 | – |
| CC1(CN)CCN(c2cnc3c(-c4cccc(N)c4Cl)n[nH]c3n2)CC1 [Example 132, 3-{6-[4-(amino-methyl)-4-methyl-piperidin-1-yl]-1H-pyrazolo[3,4-b]-pyrazin-3-yl}-2-chloroaniline] | 63 | 119 | – |
| CC1(CN)CCN(c2cnc3c(-c4ccc(Cl)c(Cl)c4)n[nH]c3n2)CC1 [Example 13, (1-(3-(3,4-dichloro-phenyl)-1H-pyrazolo[3,4-b]-pyrazin-6-yl)-4-methylpiperidin-4-yl) methanamine] | 562 | 158 | – |
| CC1(CN)CCN(c2cnc3c(-c4cn[nH]c4C(F)(F)F)n[nH]c3n2)CC1 [Example 103, (4-Methyl-1-(3-(5-(trifluoromethyl)-1H-pyrazol-4-yl)-1H-pyrazolo[3,4-b]-pyrazine-6-yl)piperidin-4-yl)methanamine] | 1630 | 2600 | – |
| CC1(CN)CCN(c2cnc3c(-c4ccnc(O)c4Cl)n[nH]c3n2)CC1 [Example 118, 4-(6-(4-(Aminomethyl)-4-methylpiperidin-1-yl)-1H-pyrazolo[3,4-b]pyrazin-3-yl)-3-chloropyridin-2-ol] | 8280 | 1130 | – |
| NCC1(O)CCN(c2cnc3c(-c4cc(N)ncc4Cl)n[nH]c3n2)CC1 [Example 134, 1-[3-(2-amino-5-chloropyridin-4-yl)-1H-pyrazolo[3,4-b]-pyrazin-6-yl]-4-(aminomethyl)-piperidin-4-ol] | 2010 | 1530 | – |
| CC1(CN)CCN(c2cnc3c(-c4ccncc4Cl)n[nH]c3n2)CC1 [Example 31, (1-(3-(3-chloro-pyridin-4-yl)-1H-pyrazolo[3,4-b]-pyrazin-6-yl)-4-methylpiperidin-4-yl) methanamine] | 710 | 929 | – |
| CC1(N)CCN(c2cnc3c(-c4ccc(F)c(Cl)c4)n[nH]c3n2)CC1 [Example 19, 1-(3-(3-Chloro-4-fluorophenyl)-1H-pyrazolo[3,4-b]-pyrazin-6-yl)-4-methylpiperidin-4-amine] | 534 | 510 | – |
| CNc1nccc(-c2n[nH]c3nc(N4CCC(C)(CN)CC4)cnc23)c1Cl [Example 104, 4-(6-(4-(Aminomethyl)-4-methylpiperidin-1-yl)-1H-pyrazolo[3,4-b]pyrazin-3-yl)-3-chloro-N-methylpyridin-2-amine] | 47 | 99 | – |
| Cc1c(Cl)cccc1-c1n[nH]c2nc(N3CCC(C)(CN)CC3)cnc12 [Example 28, (1-(3-(3-chloro-2-methylphenyl)-1H-pyrazolo[3,4-b]-pyrazin-6-yl)-4-methylpiperidin-4-yl) methanamine] | 190 | 142 | – |
| CC1(CN)CCN(c2cnc3c(-c4ccc(F)c(Cl)c4)n[nH]c3n2)CC1 [Example 14, (1-(3-(3-Chloro-4-fluorophenyl)-1H-pyrazolo[3,4-b]-pyrazin-6-yl)-4-methylpiperidin-4-yl) methanamine] | 569 | 521 | – |
| NCC1(O)CCN(c2cnc3c(-c4ccnc(O)c4Cl)n[nH]c3n2)CC1 [Example 120, 4-(6-(4-(Aminomethyl)-4-hydroxypiperidin-1-yl)-1H-pyrazolo[3,4-b]pyrazin-3-yl)-3-chloropyridin-2-ol] | 9700 | 5370 | – |
| NC1(CO)CCN(c2cnc3c(-c4ccnc(O)c4Cl)n[nH]c3n2)CC1 [Example 110, 4-(6-(4-Amino-4-(hydroxymethyl)piperidin-1-yl)-1H-pyrazolo[3,4-b]pyrazin-3-yl)-3-chloropyridin-2-ol] | 7850 | 3680 | – |
| CC1(N)CCN(c2cnc3c(-c4ccccc4Cl)n[nH]c3n2)CC1 [Example 20, 1-(3-(2-Chlorophenyl)-1H-pyrazolo[3,4-b]pyrazin-6-yl)-4-methylpiperidin-4-amine] | 158 | 326 | – |
| CC1(N)CCN(c2cnc3c(-c4cccnc4Cl)n[nH]c3n2)CC1 [Example 23, 1-(3-(2-chloro-pyridin-3-yl)-1H-pyrazolo[3,4-b]-pyrazin-6-yl)-4-methyl-piperidin-4-amine] | 428 | 1820 | – |
| Cc1ncccc1-c1n[nH]c2nc(N3CCC(C)(CN)CC3)cnc12 [Example 30, (4-methyl-1-(3-(2-methylpyridin-3-yl)-1H-pyrazolo[3,4-b]pyrazin-6-yl)-piperidin-4-yl) methanamine] | 1600 | 2510 | – |

Source: patent US10280171B2, “Heterocyclic inhibitors of PTPN11” (priority 2016, dated 2019)
